Laboratory results: patent US10281476B2, “Methods to identify modulators of RyR calcium channels” (REGENTS OF THE UNIVERSITY OF MINNESOTA, priority 2013, dated 2019)
Where no end group is shown, it is not given here.

Tests used:
[1] = system: permeabilized cardiomyocytes; experiment: Ca2+ sparks and SR Ca2+ content in permeabilized myocytes; type: cell-based, rat
Description: Myocytes were permeabilized with saponin (50μg/mL) for 60 seconds and placed in internal solution composed of EGTA 0.5 mmol/L; HEPES 10 mmol/L; Kaspartate 120 mmol/L; ATP 5 mmol/L; free MgCl2 1 mmol/L, reduced glutathione 10 mmol/L; and free [Ca2+] 50nmol/L (calculated using MaxChelator), creatine phosphokinase 5 U/mL, phosphocreatine 10 mmol/L, dextran 4% Fluo-4 0.025 mmol/L, pH 7.2. Ca2+sparks were recorded by a laser scanning confocal microscope (RADIANCE2000™ MP, Bio-Rad, UK) as previously described (Li et al., Circ Res, 2002; 90:309-316). Fluo-4 was excited at 488 nm and emission was recorded using 500/530 nm bandpass filter. To assess SR Ca2+content, caffeine (15 mmol/L) was rapidly perfused. Ca2+spark were analyzed as using SparkMaster (Picht et al., Am J Physiol Cell Physiol, 2007; 293:C1073-C1081).
Next, we asked whether RyR2 is activated by DPc10 and whether FKBP12.6 or CaM can prevent this. We assessed Ca^2+ sparks in permeabilized myocytes perfused with internal solution containing 50 nmol/L free Ca^2+ plus 1 μmol/L autocamtide-2-related inhibitory peptide (to inhibit CaMKII activity). Line-scan images were recorded after 3-hour incubations under control conditions and in the presence of 5 μmol/L DPc10, with or without 1 μmol/L CaM or 100 nmol/L FKBP12.6 (FIG. 14D).

[2] = target: RyR2 (Rattus norvegicus, UniProt B0LPN4); experiment: Steady-state F-DPc10 binding at the Z-line of saponin-permeabilized myocytes (confocal); set-up: endogenous in cells; host or cells: saponin-permeabilized adult rat ventricular myocytes
Description: Rat ventricular myocytes were isolated and permeabilized as previously described (Li et al., Circ Res, 2002; 90:309-316). All procedures were performed according to the Guiding Principles in the Care and Use of the Animals and were approved by the Council of American Physiological Society. DPc10, FKBP12.6, and CaM were labeled at specific sites with small fluorescence probes, similar to our previous studies (Guo et al., Circ Res, 2010; 106:1743-1752; Cornea et al., PNAS USA, 2009; 106:6128-6133; Guo et al., Biophys J, 2011; 101:2170-2177).
Confocal images was measured using a Biorad RADIANCE2100™ laser scanning confocal microscope equipped with an Argon ion laser, Green HeNe laser and with a Nikon Fluo x40 oil lens. FRET (fluorescence resonance energy transfer) experiments between CaM and DPc10, and FKBP12.6 and DPc10 were performed using an Olympus FV1000 confocal microscope. All experiments were done at room temperature.
Myocytes were exposed to […] F-DPc10, with intracellular [Ca^2+] ([Ca^2+]i) set at 50 nmol/L. F-DPc10 fluorescence is highest at the Z-lines, where RyR2 is concentrated, forming a typical cross-striated pattern. The difference between fluorescence intensity at the Z-line (Fz) and M-line (FM) is taken to represent [F-DPc10] specifically bound at the myocyte Z-line. We calibrated the bound [F-DPc10] in permeabilized myocytes using the linear relationship between F-DPc10 fluorescence and bath [F-DPc10] (FIG. 7B). […] To further test whether this Z-line-associated F-DPc10 represents RyR2-bound F-DPc10, we measured FRET between FKBP12.6 (known to specifically bind to RyR2 with subnanomolar affinity) (Guo et al., Circ Res, 2010; 106:1743-1752) and F-DPc10. […] Donor (AF568-FKBP12.6) fluorescence at the Z-line was quenched by HF647-DPc10, but the M-line signal was not (FIG. 9B). […]

[3] = DPc10 5 μmol/L, FKBP12.6 100 nmol/L, CaM 1 μmol/L

Sequence of RyR2 (B0LPN4 whole entry): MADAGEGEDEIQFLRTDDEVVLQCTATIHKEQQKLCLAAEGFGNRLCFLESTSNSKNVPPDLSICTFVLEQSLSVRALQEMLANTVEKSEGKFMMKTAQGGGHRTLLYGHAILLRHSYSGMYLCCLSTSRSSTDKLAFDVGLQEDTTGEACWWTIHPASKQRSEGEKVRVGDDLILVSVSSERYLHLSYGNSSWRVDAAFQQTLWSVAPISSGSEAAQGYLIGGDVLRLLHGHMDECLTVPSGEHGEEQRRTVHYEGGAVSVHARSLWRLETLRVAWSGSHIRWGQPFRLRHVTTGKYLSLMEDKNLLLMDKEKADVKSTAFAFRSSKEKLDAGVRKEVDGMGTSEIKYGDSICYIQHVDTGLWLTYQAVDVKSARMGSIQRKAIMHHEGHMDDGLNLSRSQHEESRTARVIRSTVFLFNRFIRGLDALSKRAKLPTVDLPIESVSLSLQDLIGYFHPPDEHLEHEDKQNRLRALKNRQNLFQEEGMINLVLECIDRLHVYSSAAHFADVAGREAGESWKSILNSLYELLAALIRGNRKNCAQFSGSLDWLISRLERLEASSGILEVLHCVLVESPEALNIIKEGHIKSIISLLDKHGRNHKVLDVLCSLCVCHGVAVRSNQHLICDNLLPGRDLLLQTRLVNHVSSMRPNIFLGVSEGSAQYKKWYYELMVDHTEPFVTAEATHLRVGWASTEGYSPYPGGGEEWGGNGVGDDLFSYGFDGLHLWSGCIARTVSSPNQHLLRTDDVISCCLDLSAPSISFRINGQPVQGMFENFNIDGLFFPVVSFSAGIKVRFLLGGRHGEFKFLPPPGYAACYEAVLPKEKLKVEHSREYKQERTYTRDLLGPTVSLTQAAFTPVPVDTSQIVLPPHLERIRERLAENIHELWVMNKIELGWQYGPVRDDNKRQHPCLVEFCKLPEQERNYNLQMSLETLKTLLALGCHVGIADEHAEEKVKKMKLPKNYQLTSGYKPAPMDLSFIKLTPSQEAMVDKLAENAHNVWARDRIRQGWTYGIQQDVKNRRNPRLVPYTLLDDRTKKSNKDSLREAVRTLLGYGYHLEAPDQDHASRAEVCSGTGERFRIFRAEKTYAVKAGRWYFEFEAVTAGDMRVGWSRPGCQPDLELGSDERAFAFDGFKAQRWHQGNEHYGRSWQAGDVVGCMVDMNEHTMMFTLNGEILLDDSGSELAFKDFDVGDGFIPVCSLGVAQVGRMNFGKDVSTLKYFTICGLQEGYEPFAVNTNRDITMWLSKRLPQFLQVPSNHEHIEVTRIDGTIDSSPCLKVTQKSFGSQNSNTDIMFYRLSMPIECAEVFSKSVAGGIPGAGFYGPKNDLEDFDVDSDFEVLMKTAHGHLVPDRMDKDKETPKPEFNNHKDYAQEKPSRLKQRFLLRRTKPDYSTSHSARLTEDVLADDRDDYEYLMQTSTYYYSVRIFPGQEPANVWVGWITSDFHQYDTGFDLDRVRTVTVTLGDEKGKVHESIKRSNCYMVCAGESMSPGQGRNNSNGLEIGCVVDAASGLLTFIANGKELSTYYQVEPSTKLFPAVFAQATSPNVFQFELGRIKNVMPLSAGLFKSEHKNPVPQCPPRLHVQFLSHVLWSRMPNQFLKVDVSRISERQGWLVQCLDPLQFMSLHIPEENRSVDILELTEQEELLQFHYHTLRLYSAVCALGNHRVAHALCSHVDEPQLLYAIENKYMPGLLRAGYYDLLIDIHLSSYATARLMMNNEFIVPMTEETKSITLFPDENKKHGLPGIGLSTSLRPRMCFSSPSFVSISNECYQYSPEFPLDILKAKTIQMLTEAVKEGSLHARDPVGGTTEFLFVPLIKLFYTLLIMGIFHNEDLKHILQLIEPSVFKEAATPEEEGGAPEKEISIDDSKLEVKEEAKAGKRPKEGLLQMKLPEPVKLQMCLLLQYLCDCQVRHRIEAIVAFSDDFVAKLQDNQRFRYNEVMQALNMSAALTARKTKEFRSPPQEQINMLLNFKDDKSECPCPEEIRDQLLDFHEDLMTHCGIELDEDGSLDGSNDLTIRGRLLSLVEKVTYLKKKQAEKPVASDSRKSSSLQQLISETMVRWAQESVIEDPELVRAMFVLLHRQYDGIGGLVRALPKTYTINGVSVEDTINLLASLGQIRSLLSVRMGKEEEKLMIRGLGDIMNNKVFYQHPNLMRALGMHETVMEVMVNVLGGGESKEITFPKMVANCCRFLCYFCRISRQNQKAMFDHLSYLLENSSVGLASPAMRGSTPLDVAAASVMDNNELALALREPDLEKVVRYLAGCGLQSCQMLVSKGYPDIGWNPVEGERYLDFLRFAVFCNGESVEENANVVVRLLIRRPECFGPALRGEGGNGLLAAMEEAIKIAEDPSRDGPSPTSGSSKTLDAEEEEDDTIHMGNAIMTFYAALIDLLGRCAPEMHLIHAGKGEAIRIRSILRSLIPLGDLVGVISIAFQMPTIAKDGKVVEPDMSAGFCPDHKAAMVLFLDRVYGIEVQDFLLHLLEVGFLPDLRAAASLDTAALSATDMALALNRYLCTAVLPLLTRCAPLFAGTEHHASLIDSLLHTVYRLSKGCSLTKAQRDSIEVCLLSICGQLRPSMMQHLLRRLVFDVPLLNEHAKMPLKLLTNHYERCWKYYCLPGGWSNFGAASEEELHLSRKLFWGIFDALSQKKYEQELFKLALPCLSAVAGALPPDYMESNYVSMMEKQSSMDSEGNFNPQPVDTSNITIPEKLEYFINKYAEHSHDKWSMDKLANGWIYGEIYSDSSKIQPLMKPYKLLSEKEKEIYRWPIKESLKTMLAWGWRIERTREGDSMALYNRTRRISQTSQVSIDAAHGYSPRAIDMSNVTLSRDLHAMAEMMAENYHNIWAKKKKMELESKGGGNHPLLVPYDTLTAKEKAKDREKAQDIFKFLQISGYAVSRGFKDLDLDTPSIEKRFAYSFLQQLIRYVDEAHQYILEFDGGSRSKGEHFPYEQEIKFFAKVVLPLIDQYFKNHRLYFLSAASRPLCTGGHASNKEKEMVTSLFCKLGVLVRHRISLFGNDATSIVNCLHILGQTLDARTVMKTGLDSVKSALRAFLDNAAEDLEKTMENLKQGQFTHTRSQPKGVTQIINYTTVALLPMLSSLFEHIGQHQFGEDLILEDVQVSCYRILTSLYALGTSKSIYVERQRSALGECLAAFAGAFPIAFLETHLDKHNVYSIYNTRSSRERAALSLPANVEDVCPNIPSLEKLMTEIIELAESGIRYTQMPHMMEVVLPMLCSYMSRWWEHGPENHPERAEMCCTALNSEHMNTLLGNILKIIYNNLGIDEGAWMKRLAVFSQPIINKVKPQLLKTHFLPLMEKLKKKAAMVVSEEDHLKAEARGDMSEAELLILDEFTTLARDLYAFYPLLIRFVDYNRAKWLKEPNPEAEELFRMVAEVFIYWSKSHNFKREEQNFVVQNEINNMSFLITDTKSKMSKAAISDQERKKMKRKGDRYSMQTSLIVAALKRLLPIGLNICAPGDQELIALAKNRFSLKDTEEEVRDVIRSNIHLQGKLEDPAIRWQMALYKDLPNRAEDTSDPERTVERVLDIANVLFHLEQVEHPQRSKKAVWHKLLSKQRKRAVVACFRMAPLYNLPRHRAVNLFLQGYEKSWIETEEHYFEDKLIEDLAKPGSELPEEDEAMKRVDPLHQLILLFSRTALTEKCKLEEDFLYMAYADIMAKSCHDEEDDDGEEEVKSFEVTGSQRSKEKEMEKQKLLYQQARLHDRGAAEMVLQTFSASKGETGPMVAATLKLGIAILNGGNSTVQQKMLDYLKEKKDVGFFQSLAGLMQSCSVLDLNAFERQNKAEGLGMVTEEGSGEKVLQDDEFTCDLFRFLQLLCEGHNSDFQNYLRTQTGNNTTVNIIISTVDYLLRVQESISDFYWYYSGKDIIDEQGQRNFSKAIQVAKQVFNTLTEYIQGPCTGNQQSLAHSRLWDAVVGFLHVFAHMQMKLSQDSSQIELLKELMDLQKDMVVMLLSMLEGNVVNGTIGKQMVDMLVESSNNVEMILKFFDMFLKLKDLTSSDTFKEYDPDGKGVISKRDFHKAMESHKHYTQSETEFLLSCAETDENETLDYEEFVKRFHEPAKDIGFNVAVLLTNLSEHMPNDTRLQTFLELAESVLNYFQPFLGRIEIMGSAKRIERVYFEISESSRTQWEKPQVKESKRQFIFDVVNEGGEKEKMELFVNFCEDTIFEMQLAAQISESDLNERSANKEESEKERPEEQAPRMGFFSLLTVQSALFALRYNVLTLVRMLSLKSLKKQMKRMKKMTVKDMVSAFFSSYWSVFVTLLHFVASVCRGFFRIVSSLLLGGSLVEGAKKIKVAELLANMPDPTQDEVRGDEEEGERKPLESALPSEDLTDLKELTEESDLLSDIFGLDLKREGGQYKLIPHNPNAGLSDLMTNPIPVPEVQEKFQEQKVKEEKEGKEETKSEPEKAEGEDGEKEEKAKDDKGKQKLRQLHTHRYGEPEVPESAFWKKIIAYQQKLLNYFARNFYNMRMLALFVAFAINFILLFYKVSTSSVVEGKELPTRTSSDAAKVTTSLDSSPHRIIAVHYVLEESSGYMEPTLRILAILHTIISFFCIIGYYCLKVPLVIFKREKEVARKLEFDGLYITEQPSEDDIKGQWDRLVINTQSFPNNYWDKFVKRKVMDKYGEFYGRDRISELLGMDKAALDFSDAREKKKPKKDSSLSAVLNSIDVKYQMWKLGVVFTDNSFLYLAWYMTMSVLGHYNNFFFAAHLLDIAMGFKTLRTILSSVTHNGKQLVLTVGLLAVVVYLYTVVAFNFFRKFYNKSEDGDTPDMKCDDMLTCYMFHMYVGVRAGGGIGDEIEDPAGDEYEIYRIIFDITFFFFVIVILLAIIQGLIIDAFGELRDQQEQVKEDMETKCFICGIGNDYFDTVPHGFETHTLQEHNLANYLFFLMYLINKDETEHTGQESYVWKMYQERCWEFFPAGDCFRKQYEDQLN

GFCPDHKAAMVLFLDRVYGIEVQDFLLHLLEVGFLP [DPc10]
Ca2+ spark frequency (CaSpF) vs control ([1]; 5 μmol/L DPc10, 3-hour incubation, 50 nmol/L free Ca2+, 1 μmol/L AIP): robustly increased | Ca2+ spark FDHM [1, 3]: 58.5 ± 1.00 ms | Ca2+ spark FWHM [1, 3]: 1.34 ± 0.01 μm | Ca2+ spark Peak (F/F0) [1, 3]: 0.475 ± 0.004 F/F0 | SR Ca2+ content vs control (caffeine-induced Ca2+ release) ([1]; permeabilized myocytes): significantly lower | Kd [2]: ~500 nM | Bmax value ([2]; summary in Discussion): 1.6 µmol/L
